Experimental findings from ChEMBL document CHEMBL4118210, “Synthesis of novel hetero ring fused pyridine derivatives; Their anticancer activity, CoMFA and CoMSIA studies” (Bioorg Med Chem Lett, 2018) are described below.

The subject of one test is HeLa. In words: Antiproliferative activity against human HeLa cells by MTT assay. In kind it is functional, cell-based.
Another test relates to COLO 205. In words: Antiproliferative activity against human COLO205 cells by MTT assay. In kind it is functional, cell-based.
In another test the test system is HepG2. In words: Antiproliferative activity against human HepG2 cells by MTT assay. In kind it is functional, cell-based.
The test system of a further test is MCF7. In words: Antiproliferative activity against human MCF7 cells by MTT assay. In kind it is functional, cell-based.
The subject of a further test is HEK293. In words: Antiproliferative activity against human HEK293 cells by MTT assay. Type of test: cell-based.

With `Cc1ccc(/C=N/NC(=O)c2oc3nc(-c4cccs4)cc(C(F)(F)F)c3c2N)cc1`, the IC50 in the test on HeLa (read-out: IC50) is 24.4 µM; with HeLa (read-out: pIC50 (converted)) it was 9.12 µM; with COLO 205 (read-out: IC50), 21.2 µM; in the test on COLO 205 (read-out: pIC50 (converted)) it was 10.2 µM; in the test on HepG2 it was 19.8 µM; in the test with MCF7 (read-out: IC50), 18.7 µM. Also, the IC50 in the test on MCF7 (read-out: pIC50 (converted)) is 11.2 µM; in the test with HEK293, 78 µM.
Consider `Nc1c(C(=O)N/N=C/c2ccccc2)oc2nc(-c3cccs3)cc(C(F)(F)F)c12`, for which the IC50 in the test with HeLa (read-out: IC50) was 11.8 µM; in the test on HeLa (read-out: pIC50 (converted)), 11.7 µM; with COLO 205 (read-out: IC50) it was 9.7 µM; in the test with HepG2 it was 9.9 µM; with MCF7 (read-out: IC50), 12.1 µM; with MCF7 (read-out: pIC50 (converted)) it was 12 µM. Also, the IC50 in the test on HEK293 is 72 µM.
Regarding `Nc1c(C(=O)N/N=C/c2ccc(Cl)cc2)oc2nc(-c3cccs3)cc(C(F)(F)F)c12`, the IC50 in the test with HeLa (read-out: IC50) was 8 µM; in the test on HeLa (read-out: pIC50 (converted)), 7.94 µM; in the test with COLO 205 (read-out: IC50) it was 7.8 µM; with COLO 205 (read-out: pIC50 (converted)), 7.94 µM; in the test with HepG2 it was 8.1 µM; in the test on MCF7 (read-out: IC50), 7.4 µM. Moreover, the IC50 in the test on MCF7 (read-out: pIC50 (converted)) was 7.41 µM; with HEK293, 83 µM.
In the case of `CCn1cnc2c(oc3nc(-c4cccs4)cc(C(F)(F)F)c32)c1=O`, the IC50 in the test on HeLa (read-out: IC50), with COLO 205 (read-out: IC50), with HepG2, with MCF7 (read-out: IC50) and with HEK293 was greater than 220 µg/mL each time.
As for `Nc1c(C(=O)N/N=C/c2ccc(Br)cc2)oc2nc(-c3ccccc3)cc(C(F)(F)F)c12`, the IC50 with HeLa (read-out: IC50) was 23.9 µM; in the test on HeLa (read-out: pIC50 (converted)), 24 µM; in the test on COLO 205 (read-out: IC50), 21.2 µM; with COLO 205 (read-out: pIC50 (converted)), 21.4 µM; in the test with HepG2 it was 19.9 µM; with MCF7 (read-out: IC50) it was 18.7 µM. Besides, the IC50 in the test with MCF7 (read-out: pIC50 (converted)) was 18.6 µM; in the test with HEK293, 64 µM.
Regarding `CCCNC(=O)c1oc2nc(-c3cccs3)cc(C(F)(F)F)c2c1N`, the IC50 was 18.9 µM with HeLa (read-out: IC50); 19.1 µM in the test on HeLa (read-out: pIC50 (converted)); 15.3 µM with COLO 205 (read-out: IC50); 15.5 µM in the test on COLO 205 (read-out: pIC50 (converted)); 17.2 µM in the test on HepG2; 20.4 µM in the test with MCF7 (read-out: IC50). Also, the results for the IC50 in the test with MCF7 (read-out: pIC50 (converted)) and in the test with HEK293 were 20.4 µM and 64 µM, respectively.
As to `CCn1c(C)nc2c(oc3nc(-c4cccs4)cc(C(F)(F)F)c32)c1=O`, the IC50 in the test with HeLa (read-out: IC50), in the test with COLO 205 (read-out: IC50), in the test with HepG2, with MCF7 (read-out: IC50) and with HEK293 was greater than 220 µg/mL each time.
For `CCCn1cnc2c(oc3nc(-c4cccs4)cc(C(F)(F)F)c32)c1=O`, the IC50 in the test with HeLa (read-out: IC50), in the test with COLO 205 (read-out: IC50), with HepG2, with MCF7 (read-out: IC50) and with HEK293 was greater than 220 µg/mL in each case.
Turning to `CCNC(=O)c1oc2nc(-c3cccs3)cc(C(F)(F)F)c2c1N`, the IC50 with HeLa (read-out: IC50) is 14.2 µM; in the test on HeLa (read-out: pIC50 (converted)), 14.1 µM; in the test on COLO 205 (read-out: IC50) it was 18.7 µM; in the test with COLO 205 (read-out: pIC50 (converted)), 18.6 µM; in the test with HepG2, 12.1 µM; with MCF7 (read-out: IC50), 21.8 µM. Further, the IC50 with MCF7 (read-out: pIC50 (converted)) is 21.9 µM; in the test on HEK293, 62 µM.
Consider `Cc1nc2c(oc3nc(-c4cccs4)cc(C(F)(F)F)c32)c(=O)n1C`, for which the IC50 in the test with HeLa (read-out: IC50), in the test on COLO 205 (read-out: IC50), in the test with HepG2, with MCF7 (read-out: IC50) and in the test with HEK293 was greater than 220 µg/mL each time.
